Assay results published in patent US20260334439A1, “BCAT2 INHIBITORS” (Agios Pharmaceuticals, Inc., priority 2023, published 2026).

How the values were obtained:
[1] = biological target: T1, BCAT2 (Homo sapiens, UniProt O15382); test: BCAT2 in vitro enzyme inhibition assay (hBCAT2, glutamate dehydrogenase/diaphorase/resazurin coupled fluorescence read); type: biochemical; conditions: hBCAT2, 1 h preincubation at 25° C., one hour reaction; average where tested multiple times
T1 sequence (O15382 28-392): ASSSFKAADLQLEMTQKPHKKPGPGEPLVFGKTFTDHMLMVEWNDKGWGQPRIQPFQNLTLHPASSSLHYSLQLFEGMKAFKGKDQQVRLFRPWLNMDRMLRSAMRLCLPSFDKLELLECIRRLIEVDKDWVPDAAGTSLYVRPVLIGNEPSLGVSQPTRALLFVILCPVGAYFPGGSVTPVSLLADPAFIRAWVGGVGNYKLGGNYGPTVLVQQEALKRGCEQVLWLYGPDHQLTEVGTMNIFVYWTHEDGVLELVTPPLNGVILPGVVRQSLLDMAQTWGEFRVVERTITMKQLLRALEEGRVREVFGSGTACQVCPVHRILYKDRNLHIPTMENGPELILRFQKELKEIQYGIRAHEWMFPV
Procedure, shortened: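 Coupled GDH/diaphorase/resazurin fluorescence (Ex 540/Em 590) read after 1 h reaction at 25 °C, SDS-stopped; enzyme (0.33 μg/mL in mix) first preincubated 1 h with compound, 10-point 3-fold series from 100 μM final, Tris pH 8.0 buffer with NaCl, BSA; technical duplicates, averaged across tests.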

[2] = biological target: T1, BCAT2; test: BCAT2 cell inhibition using engineered A549 cells (MUT KO, BCAT1 KO; 13C6-KMV formation by LC-MS/MS); type: cell-based; design: expressed endogenous BCAT2; endogenous in cells; host or cells: A549 cells, MUT knockout and BCAT1 knockout
Procedure, shortened: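 Medium 13C6-KMV formation is read by LC-MS/MS after PFBHA derivatization with d8-KMV internal standard. Cells are CRISPR MUT/BCAT1 double-knockout A549 expressing endogenous BCAT2, given compound 15 min before labelled isoleucine (800 uM, added 1:1) for 24 h. CTG viability run in parallel; replicates averaged.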

[3] = read-out: BCAT2 Cell Inhibition (IC50), engineered A549 cells, 24 hours, 13C6-KMV in media, average where tested multiple times

Row | SMILES | IC50 [1] [µM] | IC50 [2] [µM] | IC50 [2, 3] [µM]
1 | O=C1c2cc(Cl)ccc2OCN1[C@H]1CCC[C@@H](n2c(-c3ccccc3F)nc3cnc(-c4ncco4)cc32)[C@@H]1O [Example 215, 6-chloro-3-((1S,2S,3R)-3-(2-(2-fluorophenyl)-6-(oxazol-2-yl)-1H-imidazo[4,5-c]pyridin-1-yl)-2-hydroxycyclohexyl)-2,3-dihydro-4H-benzo[e][1,3]oxazin-4-one] | < 0.1 | < 0.1 | –
2 | COc1ccc(Cl)cc1C(=O)N[C@@H]1C[C@H](n2c(-c3ncccc3F)nc3cnc(-c4nc[nH]n4)cc32)CN(C)C1 [Example 137, 5-chloro-N-((3R,5S)-5-(2-(3-fluoropyridin-2-yl)-6-(1H-1,2,4-triazol-3-yl)-1H-imidazo[4,5-c]pyridin-1-yl)-1-methylpiperidin-3-yl)-2-methoxybenzamide] | 0.1 to 0.5 | – | > 1
3 | N#Cc1ccc(F)c(C(=O)N[C@H]2CCC[C@@H](n3c(-c4ccccc4F)nc4cnc(-c5nc[nH]n5)cc43)C2)c1 [Example 77, 5-cyano-2-fluoro-N-((1S,3R)-3-(2-(2-fluorophenyl)-6-(1H-1,2,4-triazol-3-yl)-1H-imidazo[4,5-c]pyridin-1-yl)cyclohexyl)benzamide] | < 0.1 | 0.1 to 0.5 | –
4 | CO[C@H]1C[C@H](N2Cc3ccc(F)cc3C2=O)C[C@H](n2c(-c3ccccc3OCCO)nc3ccc(-c4ncco4)cc32)C1 [Example 241, 6-fluoro-2-((1R,3S,5R)-3-(2-(2-(2-hydroxyethoxy)phenyl)-6-(oxazol-2-yl)-1H-benzo[d]imid-azol-1-yl)-5-methoxycyclohex-yl)isoindolin-1-one] | < 0.1 | 0.1 to 0.5 | –
5 | O=C1c2cc(F)ccc2CN1[C@H]1CCC[C@@H](n2c(-c3c(F)cccc3OC(F)F)nc3cnc(-c4nc[nH]n4)cc32)[C@@H]1O [compound 189] | < 0.1 | < 0.1 | –
6 | O=C1c2cc(F)ccc2CN1[C@H]1CCC[C@@H](n2c(-c3ccccc3OC(F)F)nc3ccc(-c4nc[nH]n4)c(F)c32)C1 [compound 238] | < 0.1 | < 0.1 | –
7 | CN1C[C@H](NC(=O)c2cc(Cl)ccn2)C[C@H](n2c(-c3ccccc3OC(F)F)nc3cnc(-c4nc[nH]n4)cc32)C1 [compound 141] | < 0.1 | < 0.1 | –
8 | COc1ccc(Cl)cc1C(=O)N[C@@H]1CCCC[C@H](n2c(-c3ccccc3F)nc3cnc(-c4nc[nH]n4)cc32)[C@H]1O [Example 104, 5-chloro-N-((1R,2S,3S)-3-(2-(2-fluorophenyl)-6-(1H-1,2,4-triazol-3-yl)-1H-imidazo[4,5-c]pyridin-1-yl)-2-hydroxycycloheptyl)-2-methoxybenzamide] | 0.5 to 1 | – | > 1
9 | CCNc1ccc(Cl)cc1C(=O)N[C@H]1CCC[C@@H](n2c(-c3ccccc3F)nc3cnc(-c4nc[nH]n4)cc32)C1 [Example 32, 5-chloro-2-(ethylamino)-N-((1S,3R)-3-(2-(2-fluorophenyl)-6-(1H-1,2,4-triazol-3-yl)-1H-imidazo[4,5-c]pyridin-1-yl)cyclohexyl)benzamide] | 0.1 to 0.5 | – | > 1
10 | O=C(N[C@H]1CCC[C@@H](n2c(-c3ccccc3OC(F)F)nc3cnc(-c4nc[nH]n4)cc32)C1)c1cc(Cl)ccc1O [compound 69] | < 0.1 | < 0.1 | –
11 | CN1C[C@H](NC(=O)c2cc(F)ccn2)C[C@H](n2c(-c3ccccc3OC(F)F)nc3cnc(-c4nc[nH]n4)cc32)C1 [compound 139] | < 0.1 | < 0.1 | –
12 | O=C(N[C@H]1CCC[C@@H](n2c(-c3ccccc3F)nc3cnc(-c4nc[nH]n4)cc32)C1)c1cc(F)ccc1F [Example 58, 2,5-difluoro-N-((1S,3R)-3-(2-(2-fluorophenyl)-6-(1H-1,2,4-triazol-3-yl)-1H-imidazo[4,5-c]pyridin-1-yl)cyclohexyl)benzamide] | < 0.1 | < 0.1 | –
13 | CO[C@H]1C[C@H](NC(=O)c2cc(Cl)ccn2)C[C@H](n2c(CC(C)C)nc3cnc(-c4ncccn4)cc32)C1 [Example 117, 4-chloro-N-((1R,3S,5S)-3-(2-isobutyl-6-(pyrimidin-2-yl)-1H-imidazo[4,5-c]pyridin-1-yl)-5-methoxycyclohexyl)picolinamide] | < 0.1 | 0.5 to 1 | –
14 | CC(C)COc1ccc(Cl)cc1C(=O)N[C@H]1CCC[C@@H](n2c(-c3ccccc3C#N)nc3cnc(-c4nc[nH]n4)cc32)C1 [Example 49, 5-chloro-N-((1S,3R)-3-(2-(2-cyanophenyl)-6-(1H-1,2,4-triazol-3-yl)-1H-imidazo[4,5-c]pyridin-1-yl)cyclohexyl)-2-isobutoxybenzamide] | < 0.1 | 0.1 to 0.5 | –
15 | O=C(N[C@H]1CCC[C@@H](n2c(-c3ccccc3OCCO)nc3cnc(-c4nc[nH]n4)cc32)C1)c1cc(Cl)ccc1F [Example 86, 5-chloro-2-fluoro-N-((1S,3R)-3-(2-(2-(2-hydroxyethoxy)phenyl)-6-(1H-1,2,4-triazol-3-yl)-1H-imidazo[4,5-c]pyridin-1-yl)cyclohexyl)benzamide] | < 0.1 | 0.1 to 0.5 | –
16 | CO[C@H]1C[C@H](N2Cc3ccc(F)cc3C2=O)C[C@H](n2c(-c3ccccc3OCCO)nc3ccc(-c4ncccn4)cc32)C1 [Example 194, 6-fluoro-2-((1R,3S,5R)-3-(2-(2-(2-hydroxyethoxy)phenyl)-6-(pyrimidin-2-yl)-1H-benzo[d]imidazol-1-yl)-5-methoxycyclohexyl)isoindolin-1-one] | < 0.1 | < 0.1 | –
17 | O=C1c2cc(Cl)ccc2CN1[C@H]1CCC[C@@H](n2c(-c3ccccc3OCCO)nc3cnc(-c4nc[nH]n4)cc32)C1 [Example 172, 6-chloro-2-((1S,3R)-3-(2-(2-(2-hydroxyethoxy)phenyl)-6-(1H-1,2,4-triazol-3-yl)-1H-imidazo[4,5-c]pyridin-1-yl)cyclohexyl)isoindolin-1-one] | < 0.1 | < 0.1 | –
18 | O=C1c2cc(F)ccc2CCN1[C@H]1CCC[C@@H](n2c(-c3ccccc3F)nc3cnc(-c4nc[nH]n4)cc32)C1 [Example 212, 7-fluoro-2-((1S,3R)-3-(2-(2-fluorophenyl)-6-(1H-1,2,4-triazol-3-yl)-1H-imidazo[4,5-c]pyridin-1-yl)cyclohexyl)-3,4-dihydroisoquinolin-1(2H)-one] | < 0.1 | < 0.1 | –
19 | O=C(N[C@H]1CCC[C@@H](n2c(-c3ncccc3F)nc3cnc(-c4nc[nH]n4)cc32)C1)c1cc(F)ccc1F [Example 80, 2,5-difluoro-N-((1S,3R)-3-(2-(3-fluoropyridin-2-yl)-6-(1H-1,2,4-triazol-3-yl)-1H-imidazo[4,5-c]pyridin-1-yl)cyclohexyl)benzamide] | < 0.1 | 0.1 to 0.5 | –
20 | O=C1c2cc(F)ccc2CN1[C@H]1CCC[C@@H](n2c(-c3ccccc3F)nc3cnc(-c4nc[nH]n4)cc32)C1 [Example 169, 6-fluoro-2-((1S,3R)-3-(2-(2-fluorophenyl)-6-(1H-1,2,4-triazol-3-yl)-1H-imidazo[4,5-c]pyridin-1-yl)cyclohexyl)isoindolin-1-one] | < 0.1 | < 0.1 | –
21 | O=C1c2cc(F)ccc2CN1[C@H]1CCC[C@@H](n2c(-c3ccccc3F)nc3cnc(-c4nc[nH]n4)cc32)[C@@H]1O [Example 184, 6-fluoro-2-((1S,2S,3R)-3-(2-(2-fluorophenyl)-6-(1H-1,2,4-triazol-3-yl)-1H-imidazo[4,5-c]pyridin-1-yl)-2-hydroxycyclohexyl)isoindolin-1-one] | < 0.1 | < 0.1 | –
22 | N#Cc1ccccc1-c1nc2cnc(-c3nc[nH]n3)cc2n1[C@@H]1CCC[C@H](NC(=O)c2cc(F)ccc2F)C1 [Example 81, N-((1S,3R)-3-(2-(2-cyanophenyl)-6-(1H-1,2,4-triazol-3-yl)-1H-imidazo[4,5-c]pyridin-1-yl)cyclohexyl)-2,5-difluorobenzamide] | < 0.1 | 0.1 to 0.5 | –
23 | CO[C@H]1C[C@H](NC(=O)c2cc(Cl)ccn2)C[C@H](n2c(-c3ccccc3F)nc3cnc(-c4nc[nH]n4)cc32)C1 [Example 116, 4-chloro-N-((1R,3S,5S)-3-(2-(2-fluorophenyl)-6-(1H-1,2,4-triazol-3-yl)-1H-imidazo[4,5-c]pyridin-1-yl)-5-methoxycyclohexyl)picolinamide] | < 0.1 | < 0.1 | –
24 | CC(=O)N1CC(N2Cc3ccc(F)cc3C2=O)CC(n2c(-c3c(F)cccc3F)nc3cnc(-c4nc[nH]n4)cc32)C1 (centres unmarked) [Example 201, 2-(1-acetyl-5-(2-(2,6-difluorophenyl)-6-(1H-1,2,4-triazol-3-yl)-1H-imidazo[4,5-c]pyridin-1-yl)piperidin-3-yl)-6-fluoroisoindolin-1-one] | < 0.1 | < 0.1 | –
25 | CO[C@@H]1C[C@H](NC(=O)c2cc(F)ccn2)C[C@H](n2c(-c3ccccc3F)nc3cnc(-c4nc[nH]n4)cc32)C1 [Example 114, 4-fluoro-N-((1R,3S,5R)-3-(2-(2-fluorophenyl)-6-(1H-1,2,4-triazol-3-yl)-1H-imidazo[4,5-c]pyridin-1-yl)-5-methoxycyclohexyl)picolinamide] | < 0.1 | < 0.1 | –
